SMILES strings stand for the structures. Where a name gives a salt, the structure may show the parent alone.

In the case of `COc1ccc(Br)cc1-c1ncc(CN(C)C)[nH]1` (as salt: hydrochloride) [Compound 1, 2-(5-bromo-2-methoxyphenyl)-4(5)-[(N,N-dimethyl)aminomethyl]-imidazole dihydrochloride], the melting point was in the range of 242 to 243 °C.
Turning to `Fc1ccc(N2CCN(Cc3cnc(-c4ccccc4)[nH]3)CC2)cc1` (as salt: hydrochloride) [Compound 56, 2-Phenyl-4(5)-[(4-(4-fluorophenyl)-piperazin-1-yl-)methyl]imidazole dihydrochloride], the melting point was in the range of 64 to 68 °C.
With `Fc1ccnc(N2CCN(Cc3cnc(-c4ccccc4)[nH]3)CC2)n1` (as salt: hydrochloride) [Compound 58, 2-Phenyl-4(5)-[(4-(4-fluoro-2-pyrimidinyl)-piperazin-1yl)-methyl]imidazole dihydrochloride] the figure was 188 to 190 °C.
With `C[C@@H]1CN(c2ncccn2)C[C@H](C)N1Cc1cnc(-c2ccccc2)[nH]1` [Compound 140, 2-phenyl-4(5)-[(4-(2-pyrimidinyl)-cis-2,6-dimethylpiperazin-1-yl)-methyl]-imidazole] the figure was 130 to 135 °C.
Take `O=C(/C=C/c1cnc(-c2ccccc2)[nH]1)N1CCN(c2ncccn2)CC1` [Compound 119, 2-phenyl-4(5)-[(4-(2-pyrimidinyl)-piperazin-1-yl)-propen-1-oyl]-imidazole]: the melting point was 235 to 236 °C.
With `c1ccc(-c2ncc(CN3CCC(c4ccccc4)CC3)[nH]2)cc1` (as salt: hydrochloride) [Compound 26, 2-Phenyl-4(5)-[(4-phenyl-piperidin-1-yl)-methyl]-imidazole dihydrochloride] the figure was 238 to 240 °C; with `c1cnc(N2CCN(Cc3cnc(C4CCCCC4)[nH]3)CC2)nc1` [Compound 128, 2-cyclohexyl-4(5)-[(4-(2-pyrimidinyl)-piperizin-1-yl)-methyl]-imidazole], 210 to 213 °C.
Then `COc1ccccc1N1CCN(Cc2cnc(-c3ccccc3)[nH]2)CC1` [Compound 19, 2-phenyl-4-(5)-[(4-(2-methoxyphenyl)-piperazin-1-yl)-methyl]imidazole], with 105 to 107 °C.
Then `Cc1ccc(-c2ncc(CN3CCN(c4ncccn4)CC3)[nH]2)cc1` [Compound 133], with 178 to 180 °C.
`COc1ccc(-c2nc(CN3CCC(c4ccccc4)CC3)c[nH]2)cc1` (as salt: hydrochloride) [Compound 47, 2-(4-Methoxyphenyl) -4(5)[(4-phenyl-piperidin-1-yl)-methyl]-imidazole dihydrochloride] showed a melting point of 196 to 199 °C.
`c1ccc(CC2CCN(Cc3ncc(-c4ccccc4)[nH]3)CC2)cc1` (as salt: fumarate) [Compound 77, 4-phenyl-2(5)-[(4-benzylpiperidin-1-yl)-methyl]imidazole] returned a melting point of 155 to 157 °C.
Compound `O=C(c1cnc(-c2ccccc2)[nH]1)N1CCN(c2ncccn2)CC1` [Compound 144, 2-phenyl-4(5)-N-[(4-(2-pyrimidinyl)piperazin-1-yl)-carboxamido]-imidazole] yielded a melting point of 231 to 232 °C.
With `O=C(CCc1cnc(-c2ccccc2)[nH]1)N1CCN(c2ncccn2)CC1` [Compound 122, 2-phenyl-4(5)-[(4-(2-pyrimidinyl)-piperazin-1-yl)-propan-1-oyl]-imidazole], the melting point is 143 to 148 °C.
With `COc1cccc(-c2ncc(CN3CCC(c4ccccc4)CC3)[nH]2)c1` (as salt: hydrochloride) [Compound 50, 2-(3-Methoxyphenyl)-4(5)[(4-phenyl-piperidin-1-yl)-methyl]-imidazole dihydrochloride], the melting point fell in the range of 114 to 117 °C.
Then `COc1ccccc1N1CCN(Cc2cnc(-c3cccc(OC)c3OC)[nH]2)CC1` (as salt: hydrochloride) [Compound 21, 2-(2,3-Dimethoxyphenyl)-4(5)-[(4-(2-methoxyphenyl)-piperazin-1-yl)-methyl]-imidazole dihydrochloride], with 217 to 218 °C.
`c1ccc(-c2ncc(CCN3CCN(c4ncccn4)CC3)[nH]2)cc1` [Compound 143, 2-phenyl-4(5)-[(4-(2-pyrimidinyl)-piperazin-1-yl)-ethan-1-yl]-imidazole] registered a melting point of 142 to 144 °C.
With `COc1ccc(Cl)cc1-c1ncc(CN2CCN(c3ccccc3OC)CC2)[nH]1` (as salt: hydrochloride) [Compound 43, 2-(5-Chloro-2-methoxyphenyl)-4(5)-[(4-(2-methoxyphenyl)-piperazin-1-yl)-methyl]-imidazole dihydrochloride] the figure was 138 to 143 °C; with `c1ccc(CC2CCN(Cc3cnc(-c4cccc5ccccc45)[nH]3)CC2)cc1` [Compound 92, 2-(1-naphthyl)-4(5)-[(4-benzyl-piperidin-1-yl)-methyl]imidazole], 81 to 83 °C.
With `c1ccc(CC2CCN(CC3CCCc4[nH]c(-c5ccccc5)nc43)CC2)cc1` (stereo not drawn) [Compound 138, 2-phenyl-7-[(4-benzyl-piperidin-1-yl)-methyl]-4,5,6,7-tetrahydrobenzimidazole] the figure was 189 to 191 °C; with `COc1ccccc1N1CCN(Cc2cnc(-c3ccc(F)cc3)[nH]2)CC1` [Compound 20, 2-(4-Fluorophenyl)-4(5)-[(4-(2-methoxyphenyl)-piperazin-1-yl)-methyl]-imidazole], 95 to 97 °C; with `c1ccc(-c2nc(-c3ccccc3)c(CN3CCN(c4ncccn4)CC3)[nH]2)cc1` [Compound 132, 2,5-diphenyl-4(5)-[(4-(2-pyrimidinyl)piperazin-1-yl)methyl]-imidazole], 221 to 225 °C.
With `Ic1nc(-c2ccccc2)[nH]c1CN1CCN(c2ncccn2)CC1` (as salt: hydroiodid) [Compound 90, 2-phenyl-5-iodo-4(5)-[(4-(2-pyrimidinyl)piperazin-1-yl)methyl]-imidazole hydroiodide salt], the melting point was in the range of 196 to 199 °C.
With `Clc1ccc(N2CCN(Cc3cnc(-c4ccccc4)[nH]3)CC2)cc1Cl` [Compound 61, 2-Phenyl-4(5)-[(4(3,4-dichlorophenyl)-piperazin-1-yl-)methyl]imidazole] the figure was 179 to 181 °C.
Turning to `Fc1ccccc1-c1ncc(CN2CCC(c3ccccc3)CC2)[nH]1` (as salt: maleate) [Compound 52, 2-(2-Fluorophenyl)-4(5)[(4-phenyl-piperidin-1-yl)-methyl]-imidazole dimaleate], the melting point is 142 to 144 °C.
In the case of `c1ccc(-c2ncc(CCCN3CCN(c4ncccn4)CC3)[nH]2)cc1` [Compound 125, 2-phenyl-4(5)-[(4-(2-pyrimidinyl)-piperazin-1-yl)-propan-1-yl]-imidazole], the melting point was 133 to 135 °C.
With `Cc1ccc(Cl)cc1N1CCN(Cc2cnc(-c3ccccc3)[nH]2)CC1` (as salt: hydrochloride) [Compound 60, 2-Phenyl-4(5)-[(4(5-chloro-2-methylphenyl)-piperazin-1yl-)-methyl]imidazole dihydrochloride] the figure was 142 to 145 °C.
In turn, `CCc1ccc(OC)c(-c2ncc(CN3CCN(c4ccccc4OC)CC3)[nH]2)c1` (as salt: hydrochloride) [Compound 55, 2-(5-Ethyl-2-methoxyphenyl-4(5)-[(4-(2-methoxyphenyl)-piperazin-1-yl)-methyl]-imidazoledihydrochloride] yielded a melting point of 61 to 64 °C.
With `O=C(c1ccccc1)c1ncc(CN2CCN(c3ncccn3)CC2)[nH]1` [Compound 116, 2-(benzoyl)-4(5)-[(4-(2-pyrimidinyl)-piperazin-1-yl)-methyl]-imidazole] the figure was 177 to 179 °C; with `COc1cc(Br)cc(-c2ncc(CN(C)C)[nH]2)c1OC` (as salt: hydrochloride) [Compound 16, 2-(5-Bromo-2,3-dimethoxyphenyl)-4(5)-[(N,N-dimethyl)aminomethyl]-imidazole dihydrochloride], 194 °C; with `CC(c1cnc(-c2ccccc2)[nH]1)N1CCC(Cc2ccccc2)CC1` (stereo not drawn) (as salt: hydrochloride) [Compound 91, 2-phenyl-4(5)-[1-((4-benzyl-piperidin-1-yl)-ethan-1-yl)]imidazole dihydrochloride salt], 169 to 171 °C.
